Experimental data reported in US4284621A, “Agents for protection against light” (Bayer Aktiengesellschaft, priority 1978, dated 1981).
Structures can show the parent of a compound that is named as a salt.

Assays:
[1] = UV absorption spectral data (wavelength λmax, molar extinction ε, specific extinction E1^1); assay type: physicochemical; set-up: Wavelength λmax: unit not given beside the values; conditions: for Molar extinction ε: in M-1cm-1; for specific extinction (in words, compared with compounds of formula I): comparison with compounds of formula I
[2] = Solubilities at room temperature (20-25° C.) in groundnut oil and groundnut oil/liquid paraffin 1:9; assay type: physicochemical
14 day LD 50 (tolerance) = assay type: in vivo
[3] = Table 1, second value, in parentheses

Specific extinction E1^1 ([1]; Table II) | Wavelength λmax (nm) ([1]; Table II) | Molar extinction ε ([1]; Table II) | Specific extinction E1^1 ([1]; Table 1) | Wavelength λmax ([1]; Table 1) | Molar extinction ε ([1]; Table 1) | Compound | other results
940 | 341 | 28,300 | – | – | – | CCCCCCCOC(=O)C(C#N)=Cc1ccc(OC)cc1 [n-Heptyl] | Solubility at room temperature in groundnut oil (%) [2]: 33%; Solubility at room temperature in groundnut oil/liquid paraffin 1:9 (%) [2]: 7%
– | – | – | 770 | 316 | 19,000 | CCOC(=O)C(=Cc1ccc(OC)cc1)C(C)=O [4-Methoxybenzylideneacetoacetic acid ethyl ester] | –
790 | 341 | 27,000 | – | – | – | 4-methoxy-benzylidene-cyanoacetic acid isodecyl ester [iso-Decyl] | –
– | – | – | 1,230 | 317 | 25,000 | COC(=O)C(C#N)=Cc1ccc(C)cc1 [4-Methylbenzylidenecyanoacetic acid methyl ester] | –
– | – | – | 740 | 312 | 24,800 | COc1ccc(C=C(C(=O)OCC(C)C)C(=O)OCC(C)C)cc1 [4-Methoxybenzylidenemalonic acid diisobutyl ester] | –
– | – | – | 1,230 | 312 | 23,000 | C=C(C)C(=O)Oc1ccc(C=C(C#N)C(=O)OC)cc1 [4-Methacryloxybenzylidenecyanoacetic acid methyl ester] | –
– | – | – | 1,350 | 340 | 29,300 | COC(=O)C(C#N)=Cc1ccc(OC)cc1 [4-Methoxybenzylidenecyanoacetic acid methyl ester] | –
– | – | – | 460 | 318 | 10,900 | COC(=O)C(C#N)=C(C)c1ccc(OC)cc1 [α-Cyano-β-methyl-β-(4-methoxyphenyl)-acrylic acid methyl ester] | –
1,090 | 342 | 28,300 | – | – | – | CCCCOC(=O)C(C#N)=Cc1ccc(OC)cc1 [n-Butyl] | Solubility at room temperature in groundnut oil (%) [2]: 17%; Solubility at room temperature in groundnut oil/liquid paraffin 1:9 (%) [2]: 3%
– | – | – | 1,200 | 332 | 24,300 | COc1ccc(C=C(C#N)C(N)=O)cc1 [4-Methoxybenzylidenecyanoacetic acid amide] | –
– | – | – | 1,350 | 348 | 27,300 | COC(=O)C(C#N)=Cc1ccc(O)cc1 [4-Hydroxybenzylidenecyanoacetic acid methyl ester] | –
910 | 341 | 30,000 | – | – | – | CCCCCCCCCOC(=O)C(C#N)=Cc1ccc(OC)cc1 [n-Nonyl] | Solubility at room temperature in groundnut oil (%) [2]: 55%; Solubility at room temperature in groundnut oil/liquid paraffin 1:9 (%) [2]: 10%
– | – | – | 630 | 332 | 20,750 | CCOC(=O)C(=Cc1ccc(O)c(OC)c1)C(=O)OCC [4-Hydroxy-3-methoxybenzylidenemalonic acid diethyl ester] | –
1,050 | 341 | 28,600 | – | – | – | CCCCCOC(=O)C(C#N)=Cc1ccc(OC)cc1 [n-Pentyl] | Solubility at room temperature in groundnut oil (%) [2]: 6-7%; Solubility at room temperature in groundnut oil/liquid paraffin 1:9 (%) [2]: 1.4%
970 | 341 | 30,500 | – | – | – | CCCCCCCCOC(=O)C(C#N)=Cc1ccc(OC)cc1 [n-Octyl, 4-methoxy-benzylidene-cyanoacetic acid n-octyl ester] | Solubility at room temperature in groundnut oil/liquid paraffin 1:9 (%) [2]: 90%
– | – | – | 520 | – | 14,000 | COC(=O)C(C#N)=C(c1ccccc1)c1ccccc1 [α-Cyano-β,β-diphenyl-acrylic acid methyl] | –
810 | 341 | 27,700 | – | – | – | CCCCCCCCCCOC(=O)C(C#N)=Cc1ccc(OC)cc1 [n-Decyl, 4-methoxy-benzylidene-cyanoacetic acid n-decyl ester] | –
160 | 330 | 5,920 | – | – | – | COc1ccc(C(=O)c2cc(S(=O)(=O)O)c(OC)cc2O)c(O)c1 [(1), sodium salt of 2,2'-dihydroxy-4,4'-dimethoxybenzophenone-5-sulphonic acid] | specific extinction (in words, compared with compounds of formula I) ([1]; Table II): significantly lower specific extinction
– | – | – | 510 | 325 | 15,900 | COc1ccc(C=C(C#N)C(=O)N(CC(C)C)CC(C)C)cc1 [4-Methoxybenzylidenecyanoacetic acid diisobutylamide] | –
645 | 351 | 15,900 | – | – | – | O=C(c1ccc(O)cc1O)c1ccc(O)cc1O [(2), 2,2',4,4'-tetrahydroxybenzophenone] | specific extinction (in words, compared with compounds of formula I) ([1]; Table II): significantly lower specific extinction; Solubility at room temperature in groundnut oil (%) [2]: 0.8%
– | – | – | 1,530 | 337 | 27,000 | COC(=O)C(C#N)=Cc1ccco1 [Furfurylidenecyanoacetic acid methyl ester] | –

Second part, the compound before the results:

Compound | Specific extinction E1^1 ([1]; Table II) | Wavelength λmax (nm) ([1]; Table II) | Molar extinction ε ([1]; Table II) | Specific extinction E1^1 ([1]; Table 1) | Wavelength λmax ([1]; Table 1) | Molar extinction ε ([1]; Table 1) | other results
CCCCCCOC(=O)C(C#N)=Cc1ccc(OC)cc1 [n-Hexyl, 4-methoxy-benzylidene-cyanoacetic acid n-hexyl ester] | 990 | 342 | 28,500 | – | – | – | 14 day LD 50 (14 day LD 50 (tolerance)): 5.71 mL/kg; Solubility at room temperature in groundnut oil/liquid paraffin 1:9 (%) [2]: 90%
COC(=O)C(C#N)=Cc1ccc(OC)c(OC)c1 [3,4-Dimethoxybenzylidenecyanoacetic acid methyl ester] | – | – | – | 970 | 360 | 24,000 | –
COc1ccc(C(=O)CC(=O)c2ccc(OC)cc2)cc1 [(3), dianisoylmethane] | – | – | – | – | – | – | Solubility at room temperature in groundnut oil (%) [2]: 1%
CCCCCCCCCCCCOC(=O)C(C#N)=Cc1ccc(OC)cc1 [n-Dodecyl] | 770 | 342 | 28,450 | – | – | – | Solubility at room temperature in groundnut oil (%) [2]: 14%
COC(=O)C(=Cc1ccc(N(C)C)cc1)C(=O)OC [4-Dimethylaminobenzylidenemalonic acid dimethyl ester] | – | – | – | 1,200 | 375 | 31,400 | –
CCOC(=O)C(=Cc1ccc(O)c(OC)c1)C(C)=O [4-Hydroxy-3-methoxybenzylideneacetoacetic acid ethyl ester] | – | – | – | 690 | 340 | 18,200 | –
4-methoxy-benzylidene-cyanoacetic acid isononyl ester [iso-Nonyl] | 860 | 341 | 28,400 | – | – | – | 14 day LD 50 (14 day LD 50 (tolerance)): 20.76 mL/kg
COC(=O)C(C#N)=Cc1ccccc1OC [2-Methoxybenzylidenecyanoacetic acid methyl ester] | – | – | – | 470 | 354 | 10,300 | Molar extinction ε (value in parentheses) [1, 3]: 12,100; Specific extinction E1^1 (value in parentheses) [1, 3]: 560; Wavelength λmax (value in parentheses) [1, 3]: 297
CCOC(=O)C(=Cc1ccc(OC)c(OC)c1)C(=O)OCC [3,4-Dimethoxybenzylidenemalonic acid diethyl ester] | – | – | – | 670 | 308 | 20,500 | –
COC(=O)C(C#N)=Cc1cccc(OC)c1 [3-Methoxybenzylidenecyanoacetic acid methyl ester] | – | – | – | 710 | 299 | 15,300 | –
COC(=O)C(C#N)=Cc1cccc(O)c1 [3-Hydroxybenzylidenecyanoacetic acid methyl ester] | – | – | – | 900 | 303 | 18,200 | –
CN(C)c1ccc(C=C(C(N)=O)C(N)=O)cc1 [4-Dimethylaminobenzylidenemalonic acid diamide] | – | – | – | 870 | 369 | 20,400 | –
COC(=O)C(C#N)=Cc1ccc(N(C)C)cc1 [4-Dimethylaminobenzylidenecyanoacetic acid methyl ester] | – | – | – | 870 | 421 | 19,900 | –
COC(=O)C(C#N)=Cc1ccc(Cl)cc1 [4-Chlorobenzylidenecyanoacetic acid methyl ester] | – | – | – | 940 | 313 | 20,900 | –
COC(=O)C(C#N)=Cc1ccc(O)c(OC)c1 [4-Hydroxy-3-methoxybenzylidenecyanoacetic acid methyl ester] | – | – | – | 960 | 366 | 22,400 | –
CCOC(=O)C(=Cc1cccc(O)c1)C(=O)OCC [3-Hydroxybenzylidenemalonic acid diethyl ester] | – | – | – | 770 | 282 | 20,300 | –
COC(=O)C(C#N)=Cc1cccc(N)c1 [3-Aminobenzylidenecyanic acid methyl ester] | – | – | – | 830 | 310 | 16,800 | –
